Laboratory results: patent publication US9579316B2, “Salts of 2-amino-1-hydroxyethyl-8-hydroxyquinolin-2(1H)-one derivatives having both muscarinic receptor antagonist and β2 adrenergic receptor agonist activities” (priority 2013, dated 2017)

Legend:
[1] = Thermogravimetric (TG) analysis; type: physicochemical; settings: for TG analysis: temperature until which no significant changes are observed (then loss of mass / decomposition): heated at 10° C./min between 30 and 300° C., nitrogen flow
Procedure: Thermogravimetric analyses were recorded in a Mettler Toledo SDTA851e. Samples of 1-3 mg were weighted (using a microscale MX5, Mettler) 40 μL aluminium crucibles with a pinhole lid, and were heated at 10° C./min between 30 and 300° C., under nitrogen flow (50 mL/min). Data collection and evaluation was done with software STARe.

[2] = Differential scanning calorimetry (DSC) analysis; type: physicochemical
Procedure: DSC analyses were recorded either in a Mettler Toledo DSC822e or using a DSC-821 Mettler-Toledo, serial number 5117423874. In the case of a Mettler Toledo DSC822e equipment, samples of 1-3 mg were weighted (using a microscale MX5, Mettler) into 40 μL aluminium crucibles with a pinhole lid, and were heated, under nitrogen flow (50 mL/min), from 30 to 300° C. at a heating rate of 10° C./min. Data collection and evaluation was done with software STARe. In case of a DSC-821 Mettler-Toledo, serial number 5117423874 equipment, samples were weighed into an aluminium pan, an aluminium pinhole lid placed on top of the sample and compressed with a brass rod. Samples were equilibrated at 25° C. and heated at 10° C./min to 300° C. The instrument was calibrated using indium and zinc standards.

SMILES | TG analysis: temperature until which no significant changes are observed (then loss of mass / decomposition) [1] | hygroscopicity (no solvent/water release in TG) ([1]; no change prior to 140° C., in particular at 80-100° C.) | stability (no conversion into other polymorphs, no decomposition below the DSC endotherm) [2] | DSC endothermic curve onset (possible decomposition of the salt) ([2]; heating rate 10° C./min) | DSC endothermic curve maximum (possible fusion/decomposition of the salt) ([2]; heating rate 10° C./min) [°C]
CN(CCCn1nnc2cc(CNC[C@H](O)c3ccc(O)c4[nH]c(=O)ccc34)ccc21)[C@H]1CC[C@H](OC(=O)C(O)(c2cccs2)c2cccs2)CC1.O=C1NS(=O)(=O)c2ccccc21 (relative stereo) [Example 1, trans-4-[{3-[5-({[(2R)-2-hydroxy-2-(8-hydroxy-2-oxo-1,2-dihydroquinolin-5-yl)ethyl]amino}methyl)-1H-1,2,3-benzotriazole-1-yl]propyl}(methyl)-amino]cyclohexyl hydroxy(di-2-thienyl)acetate saccharinate] | 130-140 °C | lack of hygroscopicity | high stability | about 170 °C | 
CN(CCCn1c(=O)sc2cc(CNC[C@H](O)c3ccc(O)c4[nH]c(=O)ccc34)ccc21)[C@H]1CC[C@H](OC(=O)C(O)(c2cccs2)c2cccs2)CC1.O=C(O)/C=C/C(=O)O [Example 2, trans-4-[{3-[6-({[(2R)-2-hydroxy-2-(8-hydroxy-2-oxo-1,2-dihydroquinolin-5-yl)ethyl]amino}methyl)-2-oxo-1,3-benzothiazole-3(2H)-yl]propyl}(methyl)amino]cyclohexyl hydroxy(di-2-thienyl)acetate fumarate] | about 140 °C |  | high stability |  | 134
